Data published in ChEMBL document CHEMBL4819059, “3-Hydroxy-4-methyldecanoic Acid-Containing Cyclotetradepsipeptides from an Endolichenic Beauveria sp” (J Nat Prod, 2021).
The source made the active and inactive calls. No cut-off for these calls is given here.

Experiments:
Format in all cases: functional, cell-based
[1] = test system: L6; test: Induction of glucose uptake in rat L6 myoblasts at 50 uM after 24 hrs
[2] = test system: HEI-OC1; test: Protective activity against […] HEI-OC1 cells assessed as cell viability at 10 uM after 48 hrs by CCK8 assay
[3] = test system: L6; test: Induction of glucose uptake in rat L6 myotubes after 24 to 48 hrs; settings: dose 2.5-80 µM, time 24-48 hrs
[4] = test system: L6; test: Induction of glucose uptake in rat L6 myoblasts after 24 hrs; settings: dose 0.3125-80 µM

| SMILES | Activity [1] | Activity [2] | Activity [3] | Activity [4] |
| --- | --- | --- | --- | --- |
| CCCCCCC(C)[C@@H]1CC(=O)N[C@@H](Cc2ccc(O)cc2)C(=O)N[C@@H](Cc2ccc(O)cc2)C(=O)N[C@H]([C@@H](C)CC)C(=O)O1 (some centres undefined) | Active |  |  |  |
| CCCCCC[C@H](C)[C@@H]1CC(=O)N[C@@H](Cc2c[nH]c3ccccc23)C(=O)N[C@@H](Cc2ccc(O)cc2)C(=O)N[C@H]([C@@H](C)CC)C(=O)O1 | Active |  |  |  |
| CCCCCC[C@H](C)[C@@H]1CC(=O)N[C@@H](Cc2c[nH]c3ccccc23)C(=O)N[C@@H](Cc2ccc(O)cc2)C(=O)N[C@H](CC(C)C)C(=O)O1 | Active |  |  |  |
| CCCCCC[C@H](C)[C@@H]1CC(=O)N[C@@H](Cc2c[nH]c3ccccc23)C(=O)N[C@@H](Cc2ccccc2)C(=O)N[C@H](CC(C)C)C(=O)O1 |  | Active |  |  |
| CCCCCC[C@H](C)[C@@H]1CC(=O)N[C@@H](Cc2c[nH]c3ccccc23)C(=O)N[C@@H](Cc2ccccc2)C(=O)N[C@H]([C@@H](C)CC)C(=O)O1 | Active | Active | Dose-Dependent Effect | Dose-Dependent Effect |
| CCCCCC[C@H](C)[C@@H]1CC(=O)N[C@@H](Cc2ccc(O)cc2)C(=O)N[C@@H](Cc2ccccc2)C(=O)N[C@H]([C@@H](C)CC)C(=O)O1 |  | Active |  |  |
